Test results published in PubChem BioAssay AID1845216 (Molecular Pharmacology Branch, DTP, NCI, 2023).

Test system: SW 982 tumor spheroid viability
Assay: Anticancer human tumor SW 982 cell line growth inhibition;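 note: spheroids exposed to compound for 7 days before readout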
Settings: spheroids with HUVEC and MSC; for IC50: curve of first compound; for viability, T/C: stronger effect = lower value
Outline: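 Complex tumor spheroids combined malignant cells with endothelial cells and mesenchymal stem cells. DNA-damaging drugs and DNA repair inhibitors were tested alone and in combination, at half-log dilutions down from clinical Cmax (top 10 microM if Cmax unknown), 0.25% DMSO final.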

[1] = second compound 1 µM, first compound 0.00949 µM
[2] = second compound 1 µM, first compound 0.03 µM
[3] = second compound 1 µM, first compound 0.0949 µM
[4] = second compound 1 µM, first compound 0.3 µM
[5] = second compound 1 µM, first compound 0.949 µM
[6] = second compound 1 µM, first compound 3 µM
[7] = second compound 3.16 µM, first compound 0.00949 µM
[8] = second compound 3.16 µM, first compound 0.03 µM
[9] = second compound 3.16 µM, first compound 0.0949 µM
[10] = second compound 3.16 µM, first compound 0.3 µM
[11] = second compound 3.16 µM, first compound 0.949 µM
[12] = second compound 3.16 µM, first compound 3 µM
[13] = second compound 10 µM, first compound 0.00949 µM
[14] = second compound 10 µM, first compound 0.03 µM
[15] = second compound 10 µM, first compound 0.0949 µM
[16] = second compound 10 µM, first compound 0.3 µM
[17] = second compound 10 µM, first compound 0.949 µM
[18] = second compound 10 µM, first compound 3 µM
[19] = second compound 31.6 µM, first compound 0.00949 µM
[20] = second compound 31.6 µM, first compound 0.03 µM
[21] = second compound 31.6 µM, first compound 0.0949 µM
[22] = second compound 31.6 µM, first compound 0.3 µM
[23] = second compound 31.6 µM, first compound 0.949 µM
[24] = second compound 31.6 µM, first compound 3 µM
[25] = second compound 100 µM, first compound 0.00949 µM
[26] = second compound 100 µM, first compound 0.03 µM
[27] = second compound 100 µM, first compound 0.0949 µM
[28] = second compound 100 µM, first compound 0.3 µM
[29] = second compound 100 µM, first compound 0.949 µM
[30] = second compound 100 µM, first compound 3 µM

With Cn1ncnc1[C@H]1c2n[nH]c(=O)c3cc(F)cc(c23)N[C@@H]1c1ccc(F)cc1 + Cn1nnc2c(C(N)=O)ncn2c1=O the IC50 (second compound 1 µM) was > 3 µM, the IC50 (second compound 3.16 µM) was > 3 µM and the IC50 (second compound 10 µM) was > 3 µM. For the same compound, the IC50 (second compound 31.6 µM) was 1.08 µM, the IC50 (second compound 100 µM) was < 0.00949 µM and the viability, T/C [1] was 90.9%. It also gave a viability, T/C [2] of 88.5%, a viability, T/C [3] of 86.6% and a viability, T/C [4] of 89.2%. The viability, T/C [5] was 79%, the viability, T/C [6] was 69.9% and the viability, T/C [7] was 89.8%. For the same compound, the viability, T/C [8] was 62.1%, the viability, T/C [9] was 79.3% and the viability, T/C [10] was 73%. The viability, T/C [11] was 77.3%, the viability, T/C [12] was 59.9% and the viability, T/C [13] was 70.4%. For the same compound, the viability, T/C [14] was 69.5%, the viability, T/C [15] was 60% and the viability, T/C [16] was 64.3%. The viability, T/C [17] was 60%, the viability, T/C [18] was 50.3% and the viability, T/C [19] was 56%. The viability, T/C [20] was 55.7%, the viability, T/C [21] was 53% and the viability, T/C [22] was 55.5%. The viability, T/C [23] was 50.1%, the viability, T/C [24] was 43.9% and the viability, T/C [25] was 44.5%. For the same compound, the viability, T/C [26] was 44.9%, the viability, T/C [27] was 48.1% and the viability, T/C [28] was 44%. It also gave a viability, T/C [29] of 39.8% and a viability, T/C [30] of 39.7%.

For [2H]c1nc(C)nc([2H])c1-c1cc(NC[C@@H](C)c2cccc3c(C(=O)NC)ccnc23)ncn1 + CC[C@@]1(O)C(=O)OCc2c1cc1n(c2=O)Cc2cc3c(CN(C)C)c(O)ccc3nc2-1, the IC50 (second compound 0.003 µM) was > 10 µM, the IC50 (second compound 0.00949 µM) was > 10 µM and the IC50 (second compound 0.03 µM) was > 10 µM. The IC50 (second compound 0.0949 µM) was > 10 µM, the IC50 (second compound 0.3 µM) was > 10 µM and the viability, T/C (second compound 0.003 µM, first compound 0.0316 µM) was 90.1%. For the same compound, the viability, T/C (second compound 0.003 µM, first compound 0.1 µM) was 97.5%, the viability, T/C (second compound 0.003 µM, first compound 0.316 µM) was 103% and the viability, T/C (second compound 0.003 µM, first compound 1 µM) was 104%. For the same compound, the viability, T/C (second compound 0.003 µM, first compound 3.16 µM) was 101%, the viability, T/C (second compound 0.003 µM, first compound 10 µM) was 101% and the viability, T/C (second compound 0.00949 µM, first compound 0.0316 µM) was 89.1%. For the same compound, the viability, T/C (second compound 0.00949 µM, first compound 0.1 µM) was 89.4%, the viability, T/C (second compound 0.00949 µM, first compound 0.316 µM) was 89.2% and the viability, T/C (second compound 0.00949 µM, first compound 1 µM) was 95.2%. For the same compound, the viability, T/C (second compound 0.00949 µM, first compound 3.16 µM) was 82.1%, the viability, T/C (second compound 0.00949 µM, first compound 10 µM) was 78% and the viability, T/C (second compound 0.03 µM, first compound 0.0316 µM) was 77.4%. It also gave a viability, T/C (second compound 0.03 µM, first compound 0.1 µM) of 78%, a viability, T/C (second compound 0.03 µM, first compound 0.316 µM) of 83.7% and a viability, T/C (second compound 0.03 µM, first compound 1 µM) of 84.8%. The viability, T/C (second compound 0.03 µM, first compound 3.16 µM) was 95.4%, the viability, T/C (second compound 0.03 µM, first compound 10 µM) was 81.8% and the viability, T/C (second compound 0.0949 µM, first compound 0.0316 µM) was 69.7%. The viability, T/C (second compound 0.0949 µM, first compound 0.1 µM) was 72.5%, the viability, T/C (second compound 0.0949 µM, first compound 0.316 µM) was 76.5% and the viability, T/C (second compound 0.0949 µM, first compound 1 µM) was 70.9%. For the same compound, the viability, T/C (second compound 0.0949 µM, first compound 3.16 µM) was 84.5%, the viability, T/C (second compound 0.0949 µM, first compound 10 µM) was 73.5% and the viability, T/C (second compound 0.3 µM, first compound 0.0316 µM) was 58.2%. It also gave a viability, T/C (second compound 0.3 µM, first compound 0.1 µM) of 55.4%, a viability, T/C (second compound 0.3 µM, first compound 0.316 µM) of 54.3% and a viability, T/C (second compound 0.3 µM, first compound 1 µM) of 62.5%. The viability, T/C (second compound 0.3 µM, first compound 3.16 µM) was 45.1% and the viability, T/C (second compound 0.3 µM, first compound 10 µM) was 52.1%.

Cc1sc2c(c1C)C(c1ccc(Cl)cc1)=NC(CC(=O)Nc1ccc(O)cc1)c1nnc(C)n1-2 (stereo not given) + Cn1nnc2c(C(N)=O)ncn2c1=O was tested, and the IC50 (second compound 1 µM) was 0.294 µM, the IC50 (second compound 3.16 µM) was 0.24 µM and the IC50 (second compound 10 µM) was 0.158 µM. For the same compound, the IC50 (second compound 31.6 µM) was 0.106 µM, the IC50 (second compound 100 µM) was 0.0922 µM and the viability, T/C [1] was 113%. For the same compound, the viability, T/C [2] was 101%, the viability, T/C [3] was 78.2% and the viability, T/C [4] was 47.6%. For the same compound, the viability, T/C [5] was 35%, the viability, T/C [6] was 25% and the viability, T/C [7] was 103%. For the same compound, the viability, T/C [8] was 104%, the viability, T/C [9] was 76.6% and the viability, T/C [10] was 43.8%. For the same compound, the viability, T/C [11] was 27.7%, the viability, T/C [12] was 21.4% and the viability, T/C [13] was 87.8%. The viability, T/C [14] was 81%, the viability, T/C [15] was 60.8% and the viability, T/C [16] was 36.4%. It also gave a viability, T/C [17] of 21.6%, a viability, T/C [18] of 17.8% and a viability, T/C [19] of 76.2%. For the same compound, the viability, T/C [20] was 67.6%, the viability, T/C [21] was 53.9% and the viability, T/C [22] was 27.8%. The viability, T/C [23] was 19.7%, the viability, T/C [24] was 14.7% and the viability, T/C [25] was 67.7%. The viability, T/C [26] was 66.4%, the viability, T/C [27] was 49.6% and the viability, T/C [28] was 21.2%. For the same compound, the viability, T/C [29] was 16.1% and the viability, T/C [30] was 20.6%.
